The results in this text go back to patent US20130203662A1, “Mini-Hepcidin Peptides and Methods of Using Thereof” (priority 2008, published 2013).

Bridge positions count the residues as written; N and C are the ends. Square brackets hold non-standard residues; d marks the D form. Ends that are not written are not given here. Peptide text beside a SMILES is read from it. * marks the point of attachment. Oic = O=C(O)[C@@H]1C[C@@H]2CCCC[C@@H]2N1; X3 = NC(=O)C[C@H](N*)C(c1ccccc1)c1ccccc1; Dip = N[C@H](C(=O)O)C(c1ccccc1)c1ccccc1; 1Nal = N[C@@H](Cc1cccc2ccccc12)C(=O)O; β3hF = N[C@H](CC(=O)O)Cc1ccccc1; StBu = CC(C)(C)S*; tBu = CC(C)(C)* Where only a bound is given, the exact number is not on record here.

One test has as its target T1, ferroportin fused to green fluorescent protein (ECR293/Fpn-GFP cells) (Mus musculus, UniProt Q9JHI9).
T1 sequence (Q9JHI9 1-570): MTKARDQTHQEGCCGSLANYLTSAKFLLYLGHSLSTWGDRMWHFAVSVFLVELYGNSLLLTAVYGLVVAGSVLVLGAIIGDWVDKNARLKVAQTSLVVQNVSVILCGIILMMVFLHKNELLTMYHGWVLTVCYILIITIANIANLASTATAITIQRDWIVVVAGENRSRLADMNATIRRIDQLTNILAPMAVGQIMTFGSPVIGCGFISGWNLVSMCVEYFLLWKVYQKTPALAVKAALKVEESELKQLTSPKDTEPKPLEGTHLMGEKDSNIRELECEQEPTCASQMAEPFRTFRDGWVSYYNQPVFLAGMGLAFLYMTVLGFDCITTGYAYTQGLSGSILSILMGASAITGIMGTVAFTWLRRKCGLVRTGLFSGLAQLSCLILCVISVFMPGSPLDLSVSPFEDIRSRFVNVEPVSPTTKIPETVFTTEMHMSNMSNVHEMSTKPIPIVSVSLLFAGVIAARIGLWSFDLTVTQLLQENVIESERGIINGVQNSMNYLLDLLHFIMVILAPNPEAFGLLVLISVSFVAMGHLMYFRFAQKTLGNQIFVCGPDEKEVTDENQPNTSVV
The test can be described thus: Flow cytometry of ferroportin-GFP internalization and degradation in ECR293/Fpn-GFP cells. The format is cell-based. The following applies: Hep25 variants, FIG. 1, 2A, 2B. Here is the method:
In vitro activity may be measured by the dose-dependent loss of fluorescence of cells engineered to display ferroportin fused to green fluorescent protein as in Nemeth et al. (2006) Blood 107:328-33. […]
FLOW CYTOMETRY. The activity of peptides of the present invention was measured by flow cytometry as previously described. See Nemeth et al. (2006) Blood 107:328-333, which is herein incorporated by reference. ECR293/Fpn-GFP, a cell line stably transfected with a ponasterone-inducible ferroportin construct tagged at the C-terminus with green fluorescent protein was used. See Nemeth et al. (2004) Science 306:2090-2093, which is herein incorporated by reference. Briefly, the cells were plated on poly-D-lysine coated plates in the presence of 20 μM FAC, with or without 10 μM ponasterone. After 24 hours, ponasterone was washed off, and cells were treated with peptides for 24 hours. Cells were then trypsinized and resuspended at 1×10^6 cells/ml, and the intensity of green fluorescence was analyzed by flow cytometry. […] Cells not induced with ponasterone to express Fpn-GFP were used to establish a gate to exclude background fluorescence. Cells induced with ponasterone, but not treated with any peptides, were used as the positive control. Each peptide was tested over the range of concentrations (0, 0.01, 0.03, 0.1, 0.3, 1, 3 and 10 μM). Each peptide treatment was repeated independently 3 to 6 times.
A general note: In flow cytometry, cells or beads pass a laser one at a time.
In the case of “T2A: Hep25 with alanine substitution of residue T2 (DAHFPICIFCCGCCHRSKCGMCCKT)”, the “relative hepcidin activity of substitutions in Hep25” value is recorded as “did not substantially impact hepcidin activity”.

Still in this test, the particulars now being: concentration eliciting 50% of maximal loss of fluorescence generated by reference Hep25; 24 hours.
Usually EC50 stands for the concentration that produces a half-maximal response. A high value points to a less potent agent. `C[C@@H](O)[C@H](NC(=O)[C@@H](N)CC(=O)O)C(=O)N[C@@H](Cc1c[nH]cn1)C(=O)N[C@H](C(=O)N1CCC[C@H]1C(=O)N[C@H](CCCNC(=N)N)C(=O)N[C@@H](CS)C(=O)N[C@H](CCCNC(=N)N)C(=O)N[C@H](C(N)=O)C(c1ccccc1)c1ccccc1)C(c1ccccc1)c1ccccc1` [Pr43] (H-DTH[Dip]P[dR]C[dR][Dip]-NH2): a half-maximal response (EC50) required 200 nM.

On to `CC[C@H](C)[C@H](NC(=O)[C@H](CS)NC(=O)[C@@H](NC(=O)[C@@H]1CCCN1C(=O)[C@H](Cc1ccccc1)NC(=O)[C@H](Cc1c[nH]cn1)NC(=O)[C@@H](NC(=O)[C@@H](N)CC(=O)O)[C@@H](C)O)[C@@H](C)CC)C(=O)N[C@@H](Cc1ccccc1)C(=O)N1CCC[C@@H]1C(=O)N1CCC[C@H]1CC(=O)N[C@@H](CCCCN)C(N)=O` [Pr17], for which it took 300 nM to reach a half-maximal effect (EC50). `CC[C@H](C)[C@H](NC(=O)[C@H](CS)NC(=O)[C@@H](NC(=O)[C@@H]1CCCN1C(=O)[C@H](Cc1ccccc1)NC(=O)[C@H](Cc1c[nH]cn1)NC(=O)[C@@H](NC(=O)[C@@H](N)CC(=O)O)[C@@H](C)O)[C@@H](C)CC)C(=O)N[C@@H](Cc1ccccc1)C(=O)N1CCC[C@@H]1C(=O)N1CCC[C@H]1CC(=O)N[C@@H](CCCNC(=N)N)C(N)=O` [Pr18] had a 50% effective concentration (EC50) of 1000 nM. Same read-out and setting: for `CC[C@H](C)[C@H](NC(=O)[C@H](CS)NC(=O)[C@@H](NC(=O)[C@@H]1CCCN1C(=O)[C@H](Cc1ccccc1)NC(=O)[C@H](Cc1c[nH]cn1)NC(=O)[C@@H](NC(=O)[C@@H](N)CC(=O)O)[C@@H](C)O)[C@@H](C)CC)C(=O)N[C@@H](Cc1ccccc1)C(=O)N1CCC[C@H]1CC(=O)N1CCC[C@H]1C(=O)N[C@@H](CCCCN)C(N)=O` [Pr15] the value was 150 nM; for `CC[C@H](C)[C@H](NC(=O)[C@H](CS)NC(=O)[C@@H](NC(=O)[C@@H]1CCCN1C(=O)[C@@H](NC(=O)[C@H](Cc1c[nH]cn1)NC(=O)[C@@H](NC(=O)[C@@H](N)CC(=O)O)[C@@H](C)O)C(c1ccccc1)c1ccccc1)[C@@H](C)CC)C(=O)N[C@H](C(N)=O)C(c1ccccc1)c1ccccc1` [Pr39] (H-DTH[Dip]PICI[Dip]-NH2), 35 nM; for `CC[C@H](C)[C@H](NC(=O)[C@H](CS)NC(=O)[C@@H](NC(=O)[C@@H]1CCCN1C(=O)[C@H](Cc1ccccc1)NC(=O)[C@H](Cc1c[nH]cn1)NC(=O)[C@@H](NC(=O)[C@@H](N)CC(=O)O)[C@@H](C)O)[C@@H](C)CC)C(=O)N[C@H](CC(=O)N1CCC[C@@H]1C(=O)N1CCC[C@H]1C(=O)N[C@@H](CCCCN)C(N)=O)Cc1ccccc1` [Pr19] (H-DTHFPICI[β3hF][dP]PK-NH2), 700 nM.

With `CC[C@H](C)[C@H](NC(=O)[C@H](CS)NC(=O)[C@@H](NC(=O)[C@@H]1CCCN1C(=O)[C@H](Cc1ccccc1)NC(=O)[C@H](Cc1c[nH]cn1)NC(=O)[C@@H](NC(=O)[C@@H](N)CC(=O)O)[C@@H](C)O)[C@@H](C)CC)C(=O)N[C@@H](CC(N)=O)C(c1ccccc1)c1ccccc1` [F9bhDpa] (H-DTHFPICI-X3), a half-maximal effect (EC50) was put at 100 nM.

Still in this test, the particulars now being: concentration eliciting 50% of maximal loss of fluorescence generated by reference Hep25; 24 hours; read-out: EC50 (the source's name).
For the molecule `CC[C@H](C)[C@H](NC(=O)[C@H](CS)NC(=O)[C@@H](NC(=O)[C@@H]1CCCN1C(=O)[C@H](Cc1ccccc1)NC(=O)[C@H](Cc1c[nH]cn1)NC(=O)[C@@H](NC(=O)[C@@H](N)CC(=O)O)[C@@H](C)O)[C@@H](C)CC)C(=O)N[C@H](CC(=O)N1CCC[C@@H]1C(=O)N1CCC[C@H]1C(=O)N[C@@H](CCCNC(=N)N)C(N)=O)Cc1ccccc1` [Pr20] (H-DTHFPICI[β3hF][dP]PR-NH2), the DC50 came to 200 nM. On the same count and under the same terms, for HFPICIF-NH2 [Hep7ΔDT] the value was 700 nM. On to DTHFPICI-NH2 [Hep8], for which the DC50 came to 2000 nM.

As for `CC[C@H](C)[C@H](NC(=O)[C@H](CS)NC(=O)[C@@H](NC(=O)[C@@H]1C[C@@H]2CCCC[C@@H]2N1C(=O)[C@@H](NC(=O)[C@H](Cc1c[nH]cn1)NC(=O)[C@@H](NC(=O)[C@@H](N)CC(=O)O)[C@@H](C)O)C(c1ccccc1)c1ccccc1)[C@@H](C)CC)C(=O)N[C@@H](Cc1ccccc1)C(N)=O` [Pr44] (H-DTH[Dip][Oic]ICIF-NH2; N-terminus assumed), the DC50 was 30 nM. Still for that read-out and setting: the same measure for `CC[C@H](C)[C@H](NC(=O)[C@@H]1CCCN1C(=O)[C@H](Cc1ccccc1)NC(=O)[C@H](Cc1c[nH]cn1)NC(=O)[C@@H](NC(=O)[C@@H](N)CC(=O)O)[C@@H](C)O)C(=O)N[C@@H](C(=O)N[C@H](C(=O)N[C@@H](Cc1ccccc1)C(N)=O)[C@@H](C)CC)C(C)(C)S` [(D)Pen]: 3000 nM; for `CC[C@H](C)[C@H](NC(=O)[C@H](CS)NC(=O)[C@@H](NC(=O)[C@@H]1CCCN1C(=O)C[C@H](Cc1ccccc1)NC(=O)[C@H](Cc1c[nH]cn1)NC(=O)[C@@H](NC(=O)[C@@H](N)CC(=O)O)[C@@H](C)O)[C@@H](C)CC)C(=O)N[C@@H](Cc1ccccc1)C(N)=O` [F4bhPhe]: 700 nM. Consider `CC[C@H](C)[C@H](NC(=O)[C@H](CS)NC(=O)[C@@H](NC(=O)[C@@H]1CCCN1C(=O)[C@H](Cc1ccccc1)NC(=O)[C@H](Cc1c[nH]cn1)NC(=O)[C@@H](NC(=O)[C@@H](N)CC(=O)O)[C@@H](C)O)[C@@H](C)CC)C(=O)N[C@H](CC(N)=O)Cc1ccccc1` [F9bhPhe], for which the DC50 is 150 nM.

As to `CC[C@H](C)[C@H](NC(=O)[C@H](CS)NC(=O)[C@@H](NC(=O)[C@@H]1C[C@@H]2CCCC[C@@H]2N1C(=O)[C@@H](NC(=O)[C@H](Cc1c[nH]cn1)NC(=O)[C@@H](NC(=O)[C@@H](N)CC(=O)O)[C@@H](C)O)C(c1ccccc1)c1ccccc1)[C@@H](C)CC)C(=O)N[C@H](C(N)=O)C(c1ccccc1)c1ccccc1` [Pr45] (H-DTH[Dip][Oic]ICI[Dip]-NH2; N-terminus assumed), the DC50 was found to be 150 nM. For `CC[C@H](C)[C@H](NC(=O)[C@H](CS)NC(=O)[C@@H](NC(=O)[C@@H]1CCCN1C(=O)[C@H](Cc1ccccc1)NC(=O)[C@H](Cc1c[nH]cn1)NC(=O)[C@@H](NC(=O)[C@@H](N)CC(=O)O)[C@@H](C)O)[C@@H](C)CC)C(=O)N[C@@H](Cc1cccc2ccccc12)C(N)=O` [F91Nal] (H-DTHFPICI[1Nal]-NH2; N-terminus assumed), the DC50 was 200 nM.

With `CC[C@H](C)[C@H](NC(=O)[C@H](CSC(C)(C)C)NC(=O)[C@@H](NC(=O)[C@@H]1CCCN1C(=O)[C@H](C)NC(=O)[C@H](Cc1c[nH]cn1)NC(=O)[C@@H](NC(=O)[C@@H](N)CC(=O)O)[C@@H](C)O)[C@@H](C)CC)C(=O)N[C@@H](Cc1ccccc1)C(N)=O` [Hep9C7-tBut] (H-DTHAPIC(tBu)IF-NH2), the DC50 was greater than 10000 nM.

Take `CC[C@H](C)[C@H](NC(=O)[C@H](CSSC(C)(C)C)NC(=O)[C@@H](NC(=O)[C@@H]1CCCN1C(=O)[C@H](C)NC(=O)[C@H](Cc1c[nH]cn1)NC(=O)[C@@H](NC(=O)[C@@H](N)CC(=O)O)[C@@H](C)O)[C@@H](C)CC)C(=O)N[C@@H](Cc1ccccc1)C(N)=O` [Hep9C7-SStBut] (H-DTHAPIC(StBu)IF-NH2): the DC50 stood at 700 nM.

Regarding `CC[C@H](C)[C@H](NC(=O)[C@H](CS)NC(=O)[C@@H](NC(=O)[C@@H]1CCCN1C(=O)[C@H](Cc1ccccc1)NC(=O)[C@H](Cc1c[nH]cn1)NC(=O)[C@@H](NC(=O)[C@@H](N)CC(=O)O)[C@@H](C)O)[C@@H](C)CC)C(=O)N[C@@H](Cc1ccccc1)C(=O)N1CCC[C@@H]1C(=O)N1CCC[C@H]1C(=O)N[C@@H](CCCNC(=N)N)C(N)=O` [Pr14], the DC50 stood at 90 nM. Still for that read-out and setting: for `CC[C@H](C)[C@H](NC(=O)[C@H](CCS)NC(=O)[C@@H](NC(=O)[C@@H]1CCCN1C(=O)[C@H](Cc1ccccc1)NC(=O)[C@H](Cc1c[nH]cn1)NC(=O)[C@@H](NC(=O)[C@@H](N)CC(=O)O)[C@@H](C)O)[C@@H](C)CC)C(=O)N[C@@H](Cc1ccccc1)C(N)=O` [homoC] the value was 900 nM.

The same test, now with this note: read-out: EC50; concentration eliciting 50% of maximal loss of fluorescence generated by reference Hep25; 24 hours.
Regarding `CC[C@H](C)[C@H](NC(=O)[C@@H]1CSSC[C@H](N)C(=O)N[C@@H](Cc2c[nH]cn2)C(=O)N[C@@H](Cc2ccccc2)C(=O)N2CCC[C@H]2C(=O)N[C@@H]([C@@H](C)CC)C(=O)N1)C(=O)N[C@@H](Cc1ccccc1)C(N)=O` [Cyc-2] (H-CHFPICIF-NH2; disulfide 1-6), the DC50 was greater than 10000 nM.
